From ChEMBL document CHEMBL6078622, “Enhancing outer membrane permeability of tetracycline antibiotics in P. aeruginosa using TOB-CIP conjugates” (RSC Med Chem, 2024)

Experiments:
[1] = test system: Pseudomonas aeruginosa; assay: Synergistic antibacterial activity against Pseudomonas aeruginosa PA100036 in presence of tigecycline by checkerboard assay; assay type: functional
[2] = test system: HEK293; assay: Cytotoxicity against HEK293 cells assessed as reduction in cell viability at 162 uM; assay type: toxicity, cell-based; details: human, hek293, 162 µM
[3] = test system: Pseudomonas aeruginosa; assay: Synergistic antibacterial activity against Pseudomonas aeruginosa PA101243 in presence of eravacycline by checkerboard assay; assay type: functional
[4] = test system: Pseudomonas aeruginosa; assay: Synergistic antibacterial activity against Pseudomonas aeruginosa PA264 in presence of minocycline by checkerboard assay; assay type: functional
[5] = test system: Pseudomonas aeruginosa; assay: Antibacterial activity against Pseudomonas aeruginosa PA200 assessed as doxycycline MIC by CLSI based broth-microdilution method; assay type: functional
[6] = test system: Pseudomonas aeruginosa; assay: Synergistic antibacterial activity against Pseudomonas aeruginosa PA259 assessed as fractional inhibitory concentration index in presence of eravacycline by checkerboard assay; assay type: functional
[7] = test system: Pseudomonas aeruginosa; assay: Synergistic antibacterial activity against Pseudomonas aeruginosa PA264 assessed as fold change in tigecycline MIC by CLSI based broth-microdilution method relative to tigecycline alone; assay type: functional
[8] = test system: Pseudomonas aeruginosa; assay: Synergistic antibacterial activity against Pseudomonas aeruginosa PA114228 assessed as fractional inhibitory concentration index in presence of tigecycline by checkerboard assay; assay type: functional
[9] = test system: Pseudomonas aeruginosa; assay: Antibacterial activity against Pseudomonas aeruginosa PA114228 assessed as eravacycline MIC by CLSI based broth-microdilution method; assay type: functional
[10] = test system: Pseudomonas aeruginosa; assay: Antibacterial activity against Pseudomonas aeruginosa PA095 assessed as doxycycline MIC by CLSI based broth-microdilution method; assay type: functional
[11] = test system: Pseudomonas aeruginosa; assay: Synergistic antibacterial activity against Pseudomonas aeruginosa PA264 assessed as fold change in doxycycline MIC by CLSI based broth-microdilution method relative to doxycycline alone; assay type: functional
[12] = test system: Pseudomonas aeruginosa; assay: Antibacterial activity against Pseudomonas aeruginosa PA259 assessed as minocycline MIC by CLSI based broth-microdilution method; assay type: functional
[13] = test system: Pseudomonas aeruginosa; assay: Antibacterial activity against Pseudomonas aeruginosa PA264 assessed as minocycline MIC by CLSI based broth-microdilution method; assay type: functional
[14] = test system: Pseudomonas aeruginosa; assay: Antibacterial activity against Pseudomonas aeruginosa PA259 assessed as tigecycline MIC by CLSI based broth-microdilution method; assay type: functional
[15] = test system: Pseudomonas aeruginosa; assay: Synergistic antibacterial activity against Pseudomonas aeruginosa PA101243 assessed as fractional inhibitory concentration index in presence of doxycycline by checkerboard assay; assay type: functional
[16] = test system: Pseudomonas aeruginosa; assay: Antibacterial activity against Pseudomonas aeruginosa PA101243 assessed as doxycycline MIC by CLSI based broth-microdilution method; assay type: functional
[17] = test system: Pseudomonas aeruginosa; assay: Antibacterial activity against Pseudomonas aeruginosa PA114228 assessed as inhibition of visible bacterial growth by CLSI based broth-microdilution method; assay type: functional

Cl.Cl.Cl.Cl.Cl.Cl.NC[C@H]1O[C@H](O[C@H]2[C@H](OCCCCCCCCCCCCNC(=O)c3cn(C4CC4)c4cc(N5CCNCC5)c(F)cc4c3=O)[C@@H](O[C@H]3O[C@H](CO)[C@@H](O)[C@H](N)[C@H]3O)[C@H](N)C[C@@H]2N)[C@H](N)C[C@@H]1O
MIC [1]: 8 µg/mL
Activity [2]: 60%
MIC [3]: 8 µg/mL
MIC [4]: 8 µg/mL
MIC [5]: 2 µg/mL
fractional inhibitory concentration index (FICI) [6]: 0.008
fold change (FC) [7]: 32
fractional inhibitory concentration index (FICI) [8]: 0.25
MIC [9]: 4 µg/mL
MIC [10]: 4 µg/mL
fold change (FC) [11]: 16
MIC [12]: 0.25 µg/mL
MIC [13]: 0.5 µg/mL
MIC [14]: 0.5 µg/mL
fractional inhibitory concentration index (FICI) [15]: 0.25
MIC [16]: 1 µg/mL
MIC [17]: > 128 µg/mL
